{"source": "patent US20260144788A1", "about": "“COMPOUND FOR SHP2 PROTEIN DEGRADATION AND MEDICAL USES THEREOF” (UBIX THERAPEUTICS, INC., priority 2022, published 2026)", "biological_target": "T1, SHP2 protein (Homo sapiens, UniProt Q06124)", "T1 sequence (Q06124 1-593)": "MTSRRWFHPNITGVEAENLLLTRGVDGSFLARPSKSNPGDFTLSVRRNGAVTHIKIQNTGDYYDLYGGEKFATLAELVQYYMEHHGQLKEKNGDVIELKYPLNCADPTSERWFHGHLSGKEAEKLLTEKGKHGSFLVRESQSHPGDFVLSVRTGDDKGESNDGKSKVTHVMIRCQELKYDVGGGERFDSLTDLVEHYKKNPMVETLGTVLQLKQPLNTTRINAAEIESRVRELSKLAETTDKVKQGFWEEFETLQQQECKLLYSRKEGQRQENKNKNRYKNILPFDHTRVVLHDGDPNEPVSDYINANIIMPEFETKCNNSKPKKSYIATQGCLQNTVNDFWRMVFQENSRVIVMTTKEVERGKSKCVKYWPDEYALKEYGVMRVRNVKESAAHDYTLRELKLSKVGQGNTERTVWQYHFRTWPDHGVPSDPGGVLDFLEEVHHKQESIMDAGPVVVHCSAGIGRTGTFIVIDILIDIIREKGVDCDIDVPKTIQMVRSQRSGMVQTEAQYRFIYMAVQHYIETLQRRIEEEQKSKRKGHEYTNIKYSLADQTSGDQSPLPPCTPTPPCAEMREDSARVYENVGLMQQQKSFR", "test": "Measurement of SHP2 protein degradation in NCI-H358 cells (western blotting)", "type": "cell-based", "design": "endogenous in cells; host or cells: NCI-H358", "conditions": "harvested after 24 hours", "method_in_brief": "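H358 cells in RPMI1640/25 mM HEPES/10% FBS, cultured 24 h, then exposed to compound at final 0.001, 0.01 and 0.1 μM for 24 h against a DMSO control. Lysates were normalised for protein by BCA and probed by western blot for SHP2, with GAPDH as loading control.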", "data": [{"smiles": "CC(=O)N[C@H](C(=O)N1C[C@H](O)C[C@H]1C(=O)NCc1ccc(-c2scnc2C)cc1O[C@H]1CC[C@H](C(=O)N2CC(Nc3nccc(Sc4cnc(N5CCC(C)(CN)CC5)c(CO)n4)c3Cl)C2)CC1)C(C)(C)C", "note": "[Example 44, (2S,4R)-1-((S)-2-acetamido-3,3-dimethylbutanoyl)-N-(2-(((1r,4S)-4-(3-((4-((5-(4-(aminomethyl)-4-methylpiperidin-1-yl)-6-(hydroxymethyl)pyrazin-2-yl)thio)-3-chloropyridin-2-yl)amino)azetidine-1-carbonyl)cyclohexyl)oxy)-4-(4-methylthiazol-5-yl)benzyl)-4-hydroxypyrrolidine-2-carboxamide]", "values": [{"measurement": "SHP2% degradation", "setting": "0.01 μM", "value": 88.5, "unit": "%"}, {"measurement": "SHP2% degradation", "setting": "0.1 μM", "value": 99.1, "unit": "%"}]}, {"smiles": "CC(=O)N[C@H](C(=O)N1C[C@H](O)C[C@H]1C(=O)NCc1ccc(-c2scnc2C)cc1OC1CCN(C(=O)C2CCN(c3cccc(Sc4cnc(N5CCC(C)(N)CC5)c(CO)n4)c3Cl)CC2)CC1)C(C)(C)C", "note": "[Example 84, (2S,4R)-1-((S)-2-acetamido-3,3-dimethylbutanoyl)-N-(2-((1-(1-(3-((5-(4-amino-4-methylpiperidin-1-yl)-6-(hydroxymethyl)pyrazin-2-yl)thio)-2-chlorophenyl)piperidine-4-carbonyl)piperidin-4-yl)oxy)-4-(4-methylthiazol-5-yl)benzyl)-4-hydroxypyrrolidine-2-carboxamide]", "values": [{"measurement": "SHP2% degradation", "setting": "0.01 μM", "value": 92.4, "unit": "%"}, {"measurement": "SHP2% degradation", "setting": "0.1 μM", "value": 99.9, "unit": "%"}]}, {"smiles": "Cc1ncsc1-c1ccc(CNC(=O)[C@@H]2C[C@@H](O)CN2C(=O)[C@H](C(C)C)n2cc(C3CC3)nn2)c(OC2CCN(C(=O)C3CCN(c4nccc(Sc5cnc(N6CCC(C)(CN)CC6)cn5)c4Cl)CC3)CC2)c1", "note": "[Example 101, (2S,4R)—N-(2-((1-(1-(4-((5-(4-(aminomethyl)-4-methylpiperidin-1-yl)pyrazin-2-yl)thio)-3-chloropyridin-2-yl)piperidine-4-carbonyl)piperidin-4-yl)oxy)-4-(4-methylthiazol-5-yl)benzyl)-1-((S)-2-(4-cyclopropyl-1H-1,2,3-triazol-1-yl)-3-methylbutanoyl)-4-hydroxypyrrolidine-2-carboxamide]", "values": [{"measurement": "SHP2% degradation", "setting": "0.01 μM", "value": 96.3, "unit": "%"}, {"measurement": "SHP2% degradation", "setting": "0.1 μM", "value": 97.4, "unit": "%"}]}, {"smiles": "CC(=O)N[C@H](C(=O)N1C[C@H](O)C[C@H]1C(=O)NCc1ccc(-c2scnc2C)cc1O[C@H]1CC[C@H](C(=O)N2CCC(c3nccc(Sc4cnc(N5CCC(C)(CN)CC5)cn4)c3Cl)CC2)CC1)C(C)(C)C", "note": "[Example 47, (2S,4R)-1-((S)-2-acetamido-3,3-dimethylbutanoyl)-N-(2-(((1r,4S)-4-(4-(4-((5-(4-(aminomethyl)-4-methylpiperidin-1-yl)pyrazin-2-yl)thio)-3-chloropyridin-2-yl)piperidine-1-carbonyl)cyclohexyl)oxy)-4-(4-methylthiazol-5-yl)benzyl)-4-hydroxypyrrolidine-2-carboxamide]", "values": [{"measurement": "SHP2% degradation", "setting": "0.01 μM", "value": "−34.6", "unit": "%"}, {"measurement": "SHP2% degradation", "setting": "0.1 μM", "value": 50.6, "unit": "%"}]}, {"smiles": "Cc1ncsc1-c1ccc(CNC(=O)[C@@H]2C[C@@H](O)CN2C(=O)[C@@H](NC(=O)CO)C(C)(C)C)c(OC2CCN(C(=O)C3CCN(c4nccc(Sc5cnc(N6CCC7(CC6)CO[C@@H](C)[C@H]7N)c(CO)n5)c4Cl)CC3)CC2)c1", "note": "[Example 89, (2S,4R)—N-(2-((1-(1-(4-((5-((3S,4S)-4-amino-3-methyl-2-oxa-8-azaspiro[4.5]decan-8-yl)-6-(hydroxymethyl)pyrazin-2-yl)thio)-3-chloropyridin-2-yl)piperidine-4-carbonyl)piperidin-4-yl)oxy)-4-(4-methylthiazol-5-yl)benzyl)-4-hydroxy-1-((S)-2-(2-hydroxyacetamido)-3,3-dimethylbutanoyl)pyrrolidine-2-carboxamide]", "values": [{"measurement": "SHP2% degradation", "setting": "0.01 μM", "value": 98.8, "unit": "%"}, {"measurement": "SHP2% degradation", "setting": "0.1 μM", "value": 99.9, "unit": "%"}]}, {"smiles": "CC(=O)N[C@H](C(=O)N1C[C@H](O)C[C@H]1C(=O)NCc1ccc(-c2scnc2C)cc1OC1CCN(C(=O)C2CCN(c3cccc(Sc4cnc(N5CCC(C)(CN)CC5)cn4)c3Cl)CC2)CC1)C(C)(C)C", "note": "[Example 82, (2S,4R)-1-((S)-2-acetamido-3,3-dimethylbutanoyl)-N-(2-((1-(1-(3-((5-(4-(aminomethyl)-4-methylpiperidin-1-yl)pyrazin-2-yl)thio)-2-chlorophenyl)piperidine-4-carbonyl)piperidin-4-yl)oxy)-4-(4-methylthiazol-5-yl)benzyl)-4-hydroxypyrrolidine-2-carboxamide]", "values": [{"measurement": "SHP2% degradation", "setting": "0.01 μM", "value": 94.9, "unit": "%"}, {"measurement": "SHP2% degradation", "setting": "0.1 μM", "value": 97.4, "unit": "%"}]}, {"smiles": "Cc1cc(C(C(=O)N2C[C@H](O)C[C@H]2C(=O)NCc2ccc(-c3scnc3C)cc2OC2CCN(C(=O)C3CCN(c4nccc(Sc5cnc(N6CCC(C)(CN)CC6)cn5)c4Cl)CC3)CC2)C(C)C)on1", "note": "(stereo partly drawn) [Example 92, (2S,4R)—N-(2-((1-(1-(4-((5-(4-(aminomethyl)-4-methylpiperidin-1-yl)pyrazin-2-yl)thio)-3-chloropyridin-2-yl)piperidine-4-carbonyl)piperidin-4-yl)oxy)-4-(4-methylthiazol-5-yl)benzyl)-4-hydroxy-1-(3-methyl-2-(3-methylisoxazol-5-yl)butanoyl)pyrrolidine-2-carboxamide]", "values": [{"measurement": "SHP2% degradation", "setting": "0.01 μM", "value": 30.1, "unit": "%"}, {"measurement": "SHP2% degradation", "setting": "0.1 μM", "value": 80.2, "unit": "%"}]}, {"smiles": "Cc1cc(C(C(=O)N2C[C@H](O)C[C@H]2C(=O)NCc2ccc(-c3scnc3C)cc2OC2CCN(C(=O)C3CCN(c4nccc(Sc5cnc(N6CCC7(CC6)CO[C@@H](C)[C@H]7N)cn5)c4Cl)CC3)CC2)C(C)C)on1", "note": "(stereo partly drawn) [Example 95, (2S,4R)—N-(2-((1-(1-(4-((5-((3S,4S)-4-amino-3-methyl-2-oxa-8-azaspiro[4.5]decan-8-yl)pyrazin-2-yl)thio)-3-chloropyridin-2-yl)piperidine-4-carbonyl)piperidin-4-yl)oxy)-4-(4-methylthiazol-5-yl)benzyl)-4-hydroxy-1-(3-methyl-2-(3-methylisoxazol-5-yl)butanoyl)pyrrolidine-2-carboxamide]", "values": [{"measurement": "SHP2% degradation", "setting": "0.01 μM", "value": 99.2, "unit": "%"}, {"measurement": "SHP2% degradation", "setting": "0.1 μM", "value": 99.7, "unit": "%"}]}, {"smiles": "Cc1ncsc1-c1ccc(CNC(=O)[C@@H]2C[C@@H](O)CN2C(=O)[C@@H](NC(=O)C2(F)CC2)C(C)(C)C)c(OC2CCN(C(=O)C3CCN(c4nccc(Sc5cnc(N6CCC7(CC6)CO[C@@H](C)[C@H]7N)cn5)c4Cl)CC3)CC2)c1", "note": "[Example 67, (2S,4R)—N-(2-((1-(1-(4-((5-((3S,4S)-4-amino-3-methyl-2-oxa-8-azaspiro[4.5]decan-8-yl)pyrazin-2-yl)thio)-3-chloropyridin-2-yl)piperidine-4-carbonyl)piperidin-4-yl)oxy)-4-(4-methylthiazol-5-yl)benzyl)-1-((S)-2-(1-fluorocyclopropane-1-carboxamido)-3,3-dimethylbutanoyl)-4-hydroxypyrrolidine-2-carboxamide]", "values": [{"measurement": "SHP2% degradation", "setting": "0.01 μM", "value": 94.5, "unit": "%"}, {"measurement": "SHP2% degradation", "setting": "0.1 μM", "value": 96.9, "unit": "%"}]}, {"smiles": "Cc1cn([C@H](C(=O)N2C[C@H](O)C[C@H]2C(=O)NCc2ccc(Cl)cc2OC2CCN(C(=O)C3CCN(c4nccc(Sc5cnc(N6CCC7(CC6)CO[C@@H](C)[C@H]7N)c(CO)n5)c4Cl)CC3)CC2)C(C)C)nn1", "note": "[Example 112, (2S,4R)—N-(2-((1-(1-(4-((5-((3S,4S)-4-amino-3-methyl-2-oxa-8-azaspiro[4.5]decan-8-yl)-6-(hydroxymethyl)pyrazin-2-yl)thio)-3-chloropyridin-2-yl)piperidine-4-carbonyl)piperidin-4-yl)oxy)-4-chlorobenzyl)-4-hydroxy-1-((S)-3-methyl-2-(4-methyl-1H-1,2,3-triazol-1-yl)butanoyl)pyrrolidine-2-carboxamide]", "values": [{"measurement": "SHP2% degradation", "setting": "0.01 μM", "value": 93.8, "unit": "%"}, {"measurement": "SHP2% degradation", "setting": "0.1 μM", "value": 99.7, "unit": "%"}]}, {"smiles": "Cc1ncsc1-c1ccc(CNC(=O)[C@@H]2C[C@@H](O)CN2C(=O)[C@@H](NC(=O)C2(F)CC2)C(C)(C)C)c(OC2CCN(C(=O)C3CN(c4nccc(Sc5cnc(N6CCC(C)(CN)CC6)cn5)c4Cl)C3)CC2)c1", "note": "[Example 63, (2S,4R)—N-(2-((1-(1-(4-((5-(4-(aminomethyl)-4-methylpiperidin-1-yl)pyrazin-2-yl)thio)-3-chloropyridin-2-yl)azetidine-3-carbonyl)piperidin-4-yl)oxy)-4-(4-methylthiazol-5-yl)benzyl)-1-((S)-2-(1-fluorocyclopropane-1-carboxamido)-3,3-dimethylbutanoyl)-4-hydroxypyrrolidine-2-carboxamide]", "values": [{"measurement": "SHP2% degradation", "setting": "0.01 μM", "value": 53.0, "unit": "%"}, {"measurement": "SHP2% degradation", "setting": "0.1 μM", "value": 99.0, "unit": "%"}]}, {"smiles": "CC(=O)N[C@H](C(=O)N1C[C@H](O)C[C@H]1C(=O)NCc1ccc(-c2scnc2C)cc1O[C@H]1CC[C@H](C(=O)N2CC(Nc3cccc(Sc4cnc(N5CCC(C)(N)CC5)cn4)c3Cl)C2)CC1)C(C)(C)C", "note": "[Example 28, (2S,4R)-1-((S)-2-acetamido-3,3-dimethylbutanoyl)-N-(2-(((1R,4S)-4-(3-((3-((5-(4-amino-4-methylpiperidin-1-yl)pyrazin-2-yl)thio)-2-chlorophenyl)amino)azetidine-1-carbonyl)cyclohexyl)oxy)-4-(4-methylthiazol-5-yl)benzyl)-4-hydroxypyrrolidine-2-carboxamide]", "values": [{"measurement": "SHP2% degradation", "setting": "0.01 μM", "value": 86.9, "unit": "%"}, {"measurement": "SHP2% degradation", "setting": "0.1 μM", "value": 98.5, "unit": "%"}]}]}
